Consider one compound from patent US8440168B2, “Image-guided therapy of myocardial disease: composition, manufacturing and applications” (The Board of Regents of the University of Texas System, priority 2008, dated 2013).

One series deals with normal rat. Nature of the series: SPECT/CT imaging of a normal rat. The note with it: 300 μCi, SPECT/CT at 45 min. Format: in vivo. How it is done: (§1) To ascertain ^99mTc-EDA-ESM is a heart-specific agent, not tumor seeking agent, the inventors created a tumor model. Female Fischer 344 rats (125-175 g, n=5) were inoculated with breast cancer cells (13762NF, 10^6 cells/rat, s.c. in the hind leg). After 15-20 days and a tumor volume of […], the breast tumor-bearing rats were administered with 300 μCi of ^99mTc-EDA-ESM. Scintigraphic images, using a gamma camera equipped with low-energy, parallel-hole collimator, were obtained from 15 to 45 min. In separate studies, normal Female Fischer 344 rats ([…], n=5) were administered with 300 μCi of ^99mTc-EDA-ESM and scintigraphic images were obtained at 30-180 min. One rat was administered with 300 μCi of ^99mTc-EDA-ESM and SPECT/CT was performed at 45 min. […] In normal rats administered with ^99mTc-EDA-ESM (n=5), heart to muscle ([…]) count density uptake ratios were increased (2.7 to 5.1) at 30-180 min (FIG. 11).

Series [1] has as its system breast tumor-bearing rats. As to the kind of experiment: Planar scintigraphic imaging in breast tumor-bearing rats. The series is classed as in vivo, Female Fischer 344 rats. The protocol: as §1
The mark [2] stands for this setting: breast tumor-bearing rats (13762NF), 300 μCi, planar scintigraphy 15 to 45 min.

Molecules are shown by their SMILES.

In the case of `CC(C)NCC(O)COc1ccc(CCC(=O)[N]2CC[NH][Tc]23(=[O])[NH]CC[N]3C(=O)CCc2ccc(OCC(O)CNC(C)C)cc2)cc1` (centres unmarked) [^99mTc-EDA-ESM, ^99mTc-Ethylenediamine-esmolol], the “heart uptake (SPECT/CT)” value with normal rat is reported as “high heart uptake”. Also, in series [1] (setting [2]), the heart uptake entry is “high uptake” and the tumor visualization result was “could not be visualized well”. Besides, in series [1] (breast tumor-bearing rats, 300 μCi/rat, 15-45 minutes, compared to laterally located tissues), the “cardiac region count/pixels ratio (line profile curve)” value is on record as “high cardiac region count/pixels ratio”. Further, the “Heart to muscle (H/M) count density uptake ratios” value in series [1] (tumor-bearing rats (n=4), 300 μCi IV, sacrificed at 2 hrs, compared with heart/other tissue ratios) is recorded as “higher than other tissues”.
